Test results: ChEMBL document CHEMBL3091384, “Chemical probes to study ADP-ribosylation: synthesis and biochemical evaluation of inhibitors of the human ADP-ribosyltransferase ARTD3/PARP3” (J Med Chem, 2013)

Assays:
[1] = species on record: Homo sapiens; test: Binding affinity to […] (unknown origin) assessed as change in melting temperature by thermal stabilization assay
[2] = test system: Poly [ADP-ribose] polymerase 14, ARTD8/PARP14 (Homo sapiens)
[3] = biological target: Poly [ADP-ribose] polymerase 2 (Homo sapiens) (UniProt Q9UGN5)
Sequence of Poly [ADP-ribose] polymerase 2 (Homo sapiens) (Q9UGN5 whole entry): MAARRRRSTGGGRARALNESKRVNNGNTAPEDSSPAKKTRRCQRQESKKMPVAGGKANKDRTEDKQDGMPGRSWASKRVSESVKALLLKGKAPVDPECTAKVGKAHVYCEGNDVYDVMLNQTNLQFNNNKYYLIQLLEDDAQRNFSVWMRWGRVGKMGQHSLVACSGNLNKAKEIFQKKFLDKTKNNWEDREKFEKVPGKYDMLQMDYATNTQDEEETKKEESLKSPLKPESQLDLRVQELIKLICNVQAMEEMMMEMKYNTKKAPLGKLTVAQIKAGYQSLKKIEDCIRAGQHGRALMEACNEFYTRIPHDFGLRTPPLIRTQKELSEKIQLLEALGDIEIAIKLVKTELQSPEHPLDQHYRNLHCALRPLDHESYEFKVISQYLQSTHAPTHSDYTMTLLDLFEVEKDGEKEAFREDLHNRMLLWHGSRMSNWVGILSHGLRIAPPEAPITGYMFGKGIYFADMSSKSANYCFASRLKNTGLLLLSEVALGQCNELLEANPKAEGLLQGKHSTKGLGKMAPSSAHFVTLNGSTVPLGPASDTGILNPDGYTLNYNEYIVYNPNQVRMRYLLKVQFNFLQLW

[4] = biological target: Poly [ADP-ribose] polymerase 1 (Homo sapiens, UniProt P09874)
Sequence of Poly [ADP-ribose] polymerase 1 (P09874 whole entry): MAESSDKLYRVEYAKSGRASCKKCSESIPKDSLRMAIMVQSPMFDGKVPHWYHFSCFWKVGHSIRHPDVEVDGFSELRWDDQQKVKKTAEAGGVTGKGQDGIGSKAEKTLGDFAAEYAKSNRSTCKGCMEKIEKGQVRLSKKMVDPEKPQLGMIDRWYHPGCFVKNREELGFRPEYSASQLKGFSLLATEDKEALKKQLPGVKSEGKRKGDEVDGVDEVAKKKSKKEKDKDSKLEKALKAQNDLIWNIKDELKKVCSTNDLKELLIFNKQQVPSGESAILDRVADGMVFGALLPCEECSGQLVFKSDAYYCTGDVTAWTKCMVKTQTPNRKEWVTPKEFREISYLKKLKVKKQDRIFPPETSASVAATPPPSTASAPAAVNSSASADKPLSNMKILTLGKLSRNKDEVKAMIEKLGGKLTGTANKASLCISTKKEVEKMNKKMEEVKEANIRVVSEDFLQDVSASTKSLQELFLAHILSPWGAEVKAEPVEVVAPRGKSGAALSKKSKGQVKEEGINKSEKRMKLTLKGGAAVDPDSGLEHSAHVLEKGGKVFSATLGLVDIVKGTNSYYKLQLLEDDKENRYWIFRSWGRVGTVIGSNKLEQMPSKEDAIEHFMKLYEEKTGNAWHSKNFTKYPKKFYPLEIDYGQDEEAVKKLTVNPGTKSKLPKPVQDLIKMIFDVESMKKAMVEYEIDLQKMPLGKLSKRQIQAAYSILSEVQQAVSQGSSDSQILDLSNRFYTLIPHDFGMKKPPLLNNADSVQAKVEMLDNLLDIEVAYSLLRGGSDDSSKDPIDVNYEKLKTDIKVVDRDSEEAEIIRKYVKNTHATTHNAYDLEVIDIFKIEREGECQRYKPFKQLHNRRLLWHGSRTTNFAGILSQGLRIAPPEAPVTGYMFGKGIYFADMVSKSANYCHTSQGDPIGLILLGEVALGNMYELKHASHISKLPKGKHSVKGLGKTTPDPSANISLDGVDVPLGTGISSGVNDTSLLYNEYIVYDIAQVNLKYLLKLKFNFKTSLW

[5] = biological target: T1, Protein mono-ADP-ribosyltransferase PARP3 (Homo sapiens) (UniProt Q9Y6F1)
T1 sequence (whole entry): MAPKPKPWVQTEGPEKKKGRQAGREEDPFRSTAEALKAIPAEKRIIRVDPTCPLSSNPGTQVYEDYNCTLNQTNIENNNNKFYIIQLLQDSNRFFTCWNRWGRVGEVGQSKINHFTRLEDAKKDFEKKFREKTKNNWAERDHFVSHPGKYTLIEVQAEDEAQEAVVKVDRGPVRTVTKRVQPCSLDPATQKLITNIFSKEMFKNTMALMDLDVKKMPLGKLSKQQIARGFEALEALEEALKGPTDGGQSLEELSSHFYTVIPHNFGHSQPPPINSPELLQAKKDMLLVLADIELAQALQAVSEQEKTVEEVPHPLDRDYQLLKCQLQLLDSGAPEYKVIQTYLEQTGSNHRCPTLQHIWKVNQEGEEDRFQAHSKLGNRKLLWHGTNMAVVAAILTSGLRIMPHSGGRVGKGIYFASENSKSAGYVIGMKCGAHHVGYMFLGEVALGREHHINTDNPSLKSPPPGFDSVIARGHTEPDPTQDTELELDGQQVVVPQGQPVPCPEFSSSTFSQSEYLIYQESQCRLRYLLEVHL

| SMILES | ΔTm [1] | ΔTm [2] | ΔTm [3] | ΔTm [4] | ΔTm [5] |
| --- | --- | --- | --- | --- | --- |
| O=C(CCc1nc2cc(Cl)ccc2c(=O)[nH]1)N[C@H](CO)c1ccccc1 | 0.36 °C | -0.25 °C | 0.98 °C | 0.76 °C | 0.5 °C |
| O=C(CCc1nc2ccccc2c(=O)[nH]1)NC(c1ccc(Cl)cc1)C1CC1 (racemic) | 0.52 °C | -0.28 °C | 0.77 °C | 2.17 °C | 0.45 °C |
| O=C(NCc1ccccc1)NCc1nc2ccccc2c(=O)[nH]1 | 0.34 °C | -1.05 °C | -0.23 °C | 0.65 °C | 2.91 °C |
| CC(NC(=O)CCc1nc2ccccc2c(=O)[nH]1)c1ccncc1 (racemic) | 0.3 °C | 0 °C | 1.82 °C | 2.68 °C | 5.02 °C |
| CC(NC(=O)CCc1nc2ccccc2c(=O)[nH]1)c1ccc(S(N)(=O)=O)cc1 (racemic) | 1.94 °C | – | – | – | – |
| O=C(CCc1nc2ccccc2c(=O)[nH]1)NCc1ccc([N+](=O)[O-])cc1 | 0.97 °C | -0.11 °C | 0.53 °C | 4 °C | 3.29 °C |
| C[C@H](NC(=O)/C=C/c1nc2ccccc2c(=O)[nH]1)c1ccccc1 | 0.42 °C | -0.07 °C | -0.67 °C | 1.22 °C | 0.22 °C |
| O=C(/C=C/c1nc2ccccc2c(=O)[nH]1)N[C@H](CO)Cc1ccccc1 | 0.08 °C | -0.7 °C | -0.17 °C | 0.41 °C | 6.25 °C |
| C[C@@H](CO)NC(=O)CCc1nc2ccccc2c(=O)[nH]1 | 0.56 °C | – | – | – | – |
| CC(NC(=O)CCc1nc2ccccc2c(=O)[nH]1)c1ccc(-n2ccnc2)cc1 (racemic) | 0.64 °C | – | – | – | – |
| O=C(CCc1nc(O)c2ccccc2n1)NCc1ccccn1 | 0.15 °C | – | 1.48 °C | 1.93 °C | 4.83 °C |
| C[C@H](NC(=O)NCc1nc2ccccc2c(=O)[nH]1)c1ccccc1 | 0.39 °C | -0.77 °C | 0.33 °C | 0.88 °C | 4.95 °C |
| O=C(CCCc1nc2ccccc2c(=O)[nH]1)N[C@@H]1CCc2ccccc21 | 1.2 °C | 0.13 °C | 2.29 °C | 1.52 °C | 3.46 °C |
| Cc1ccc([C@H](C)NC(=O)CCc2nc3ccccc3c(=O)[nH]2)cc1C | 0.22 °C | -0.22 °C | -0.47 °C | 0.22 °C | 0.74 °C |
| Cc1ccc(C)c(C(C)NC(=O)CCc2nc3ccccc3c(=O)[nH]2)c1 (racemic) | 0.44 °C | 0.57 °C | 0.87 °C | 2 °C | 3.07 °C |
| O=C(CCc1nc2ccccc2c(=O)[nH]1)N1CCc2ccccc2C1 | 0.14 °C | -0.07 °C | -0.17 °C | 1.15 °C | 4.73 °C |
| CON(C)C(=O)[C@H](Cc1ccccc1)NC(=O)CCc1nc2ccccc2c(=O)[nH]1 | 0.11 °C | 0.32 °C | 0.33 °C | 1.37 °C | 5.94 °C |
| O=C(CCCc1nc2ccccc2c(=O)[nH]1)N[C@H]1CCc2ccccc21 | 0.59 °C | -0.18 °C | 1.27 °C | 1.88 °C | 4.69 °C |
| O=C(CCc1nc2ccccc2c(=O)[nH]1)NC1CCCc2ccccc21 (stereo unspecified) | 1.83 °C | 0.24 °C | 1.11 °C | 2.44 °C | 2.28 °C |
| O=C(CCc1nc2ccccc2c(=O)[nH]1)NCc1ccc(OC(F)F)cc1 | 0.96 °C | 0.31 °C | 1.35 °C | 3.39 °C | 0.78 °C |
| C[C@H](NC(=O)CCc1nc2ccccc2c(=O)[nH]1)c1cccc(C(F)(F)F)c1 | 0.23 °C | -0.37 °C | -0.6 °C | 0.25 °C | 0.69 °C |
| CC[C@@H](CO)NC(=O)CCc1nc2ccccc2c(=O)[nH]1 | 0.35 °C | – | – | – | – |
| COc1ccccc1CNC(=O)CCc1nc(O)c2ccccc2n1 | 0.54 °C | – | 1.14 °C | 1.45 °C | 2.96 °C |
| O=C(CCc1nc2ccccc2c(=O)[nH]1)NCc1ccc(F)cc1 | 0.69 °C | 0.69 °C | 1.37 °C | 3.11 °C | 4.2 °C |

Results, then the compound that gave them:

| ΔTm [1] | ΔTm [2] | ΔTm [3] | ΔTm [4] | ΔTm [5] | SMILES |
| --- | --- | --- | --- | --- | --- |
| 0.48 °C | 0.26 °C | 1.64 °C | 1.85 °C | 5.39 °C | O=C(CCc1nc2ccccc2c(=O)[nH]1)NCc1ccccc1Cl |
| 0.43 °C | 0.05 °C | 1.28 °C | 0.92 °C | 0.16 °C | C[C@@H](NC(=O)CCc1nc2cc(Cl)ccc2c(=O)[nH]1)c1ccccc1 |
| 0.49 °C | 0.2 °C | 1.57 °C | 2.83 °C | 6.23 °C | O=C(CCc1nc2ccccc2c(=O)[nH]1)NCCc1ccccc1 |
| 1.37 °C | -0.05 °C | 0.21 °C | 1.56 °C | 4.27 °C | C[C@@H](NC(=O)CCCc1nc2ccccc2c(=O)[nH]1)c1ccccc1 |
| 0.29 °C | -0.1 °C | -0.48 °C | 0.26 °C | 0.2 °C | C[C@H](NC(=O)CCc1nc2ccccc2c(=O)[nH]1)c1cccc(Cl)c1 |
| 0.32 °C | -0.28 °C | 1.77 °C | 2.16 °C | 2.63 °C | O=C(CCc1nc2ccccc2c(=O)[nH]1)NCc1ccccc1 |
| 0.05 °C | -0.04 °C | -0.25 °C | 0.37 °C | 0.63 °C | C[C@@H](NC(=O)Cc1nc2ccccc2c(=O)[nH]1)c1ccccc1 |
| 0.12 °C | 0.12 °C | -0.46 °C | 0.36 °C | 0.42 °C | C[C@H](NC(=O)CCc1nc2ccccc2c(=O)[nH]1)c1ccccc1F |
| 0.52 °C | -0.21 °C | 0.37 °C | 1.51 °C | 4.58 °C | C[C@H](NC(=O)CCCc1nc2ccccc2c(=O)[nH]1)c1ccccc1 |
| 1.08 °C | – | – | – | – | NC(=O)[C@H](Cc1ccccc1)NC(=O)CCc1nc2ccccc2c(=O)[nH]1 |
| 0.82 °C | 0.38 °C | 1.64 °C | 2.83 °C | 3.57 °C | O=C(CCc1nc2ccccc2c(=O)[nH]1)N[C@H](CO)c1ccccc1 |
| 0.12 °C | – | – | – | – | C[C@@H](NC(=O)CCc1nc2ccccc2c(=O)[nH]1)c1ccccn1 |
| 0.01 °C | 0.04 °C | -0.01 °C | 0.31 °C | 0.43 °C | C[C@H](NC(=O)Cc1nc2ccccc2c(=O)[nH]1)c1ccccc1 |
| 1.05 °C | 0.53 °C | 1.84 °C | 2.9 °C | 3.22 °C | O=C(CCCc1nc2ccccc2c(=O)[nH]1)N[C@H](CO)c1ccccc1 |
| 0.13 °C | – | – | – | – | C[C@H](NC(=O)CCc1nc2ccccc2c(=O)[nH]1)c1ccccn1 |
| 0.6 °C | – | – | – | – | O=C(CCc1nc2ccccc2c(=O)[nH]1)N[C@H](CO)Cc1ccccc1 |
| 0.41 °C | 0.02 °C | 0.53 °C | 0.44 °C | 0.09 °C | O=C(CCCc1nc2ccccc2c(=O)[nH]1)NC(c1ccccc1)c1ccccc1 |
| 0.33 °C | – | – | – | – | CC[C@H](NC(=O)CCc1nc2ccccc2c(=O)[nH]1)c1ccccc1 |
| 0.35 °C | – | – | – | – | C[C@@H](NC(=O)CCc1nc2ccccc2c(=O)[nH]1)c1ccccc1 |
| 0.44 °C | 0.16 °C | 0.74 °C | 0.9 °C | 5.96 °C | CC(C)(C)CC(NC(=O)CCc1nc2ccccc2c(=O)[nH]1)c1ccccc1 (racemic) |
| 0.22 °C | -0.37 °C | -0.32 °C | 0.24 °C | 1.36 °C | O=C(CCc1nc2ccccc2c(=O)[nH]1)N[C@@H](Cc1ccccc1)C(=O)O |
| 0.5 °C | – | – | – | – | COC(=O)[C@H](Cc1ccccc1)NC(=O)CCc1nc2ccccc2c(=O)[nH]1 |
| 0.13 °C | -0.18 °C | 0.06 °C | 1 °C | 0.75 °C | C[C@H](NC(=O)CCc1nc2ccccc2c(=O)[nH]1)c1cccc(F)c1 |
| 0.7 °C | -0.27 °C | 1.3 °C | 2.79 °C | 6.31 °C | O=C(CCc1nc2ccccc2c(=O)[nH]1)NCc1ccccc1O |
| 0.13 °C | – | – | – | – | C[C@H](NC(=O)CCc1nc2ccccc2c(=O)[nH]1)c1ccccc1 |
| 0.22 °C | 0.45 °C | 0.3 °C | 0.2 °C | 0.2 °C | O=C(CCc1nc2ccccc2c(=O)[nH]1)NC(c1ccccc1)c1ccccc1 |
| 0.2 °C | 0.82 °C | 0.83 °C | 0.11 °C | 0.35 °C | O=C(CCc1nc2cc(Cl)ccc2c(=O)[nH]1)NC(c1ccccc1)c1ccccc1 |
| 0.07 °C | 0.13 °C | 0.98 °C | 1.93 °C | 5.71 °C | CCC(=O)[C@H](Cc1ccccc1)NC(=O)CCc1nc2ccccc2c(=O)[nH]1 |
| 0 °C | – | – | – | – | CC(NC(=O)CCc1nc2ccccc2c(=O)[nH]1)c1ccccn1 (racemic) |
| 0.18 °C | 0.04 °C | -0.59 °C | 0.04 °C | 0.12 °C | C[C@H](NC(=O)CCc1nc2ccccc2c(=O)[nH]1)c1ccc(Cl)cc1 |
